Results reported in US8124629B2, “Naphthylacetic acids” (Hoffmann-La Roche Inc., priority 2008, dated 2012).

What was measured:
[1] = molecular target: T1, human CRTH2 (Homo sapiens, UniProt Q9Y5Y4); assay: Human CRTH2 Receptor Binding Assay (whole cell, [3H]ramatroban); parameters: expressed in transfected cells; host or cells: CHO-K1; conditions: CHO-K1 cells expressing human CRTH2 and G-alpha16; 20 nM [3H]ramatroban; 1 hour, room temperature
T1 sequence (Q9Y5Y4 1-395): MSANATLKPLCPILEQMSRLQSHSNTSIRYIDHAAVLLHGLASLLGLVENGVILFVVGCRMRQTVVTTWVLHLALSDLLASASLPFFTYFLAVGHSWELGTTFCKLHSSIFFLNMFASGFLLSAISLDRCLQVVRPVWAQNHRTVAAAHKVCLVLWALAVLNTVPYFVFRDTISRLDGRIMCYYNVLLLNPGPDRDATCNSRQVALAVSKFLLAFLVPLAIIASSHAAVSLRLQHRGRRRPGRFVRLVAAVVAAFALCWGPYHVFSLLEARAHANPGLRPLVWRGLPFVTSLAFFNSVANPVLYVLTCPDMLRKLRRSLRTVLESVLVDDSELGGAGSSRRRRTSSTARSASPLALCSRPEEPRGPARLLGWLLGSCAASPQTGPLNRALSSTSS
How it was run: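 CHO-K1 cells stably co-expressing human CRTH2 and G-alpha16, 1.5×10^5 cells/reaction, bound 1 h at room temperature with 20 nM [3H]ramatroban in PBS, 10 mM MgCl2, 0.06% BSA. Filter-bound radioactivity counted; non-specific binding defined with 10 μM 15(R)-15-methyl PGD2. IC50 from 4-parameter fit of 7-concentration inhibition data.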

[2] = molecular target: T1, human CRTH2; assay: Calcium Flux Assay Using Fluorometric Imaging Plate Reader (FLIPR); assay type: cell-based; parameters: expressed in transfected cells; host or cells: CHO-K1 (previously transfected with G-alpha 16); conditions: CHO-K1 cells with G-alpha 16 and human CRTH2; inhibition of ligand (DK-PGD2) induced Ca2+ flux; read-out: FLIPR assay IC50 (exceptions, greater than 3)
Protocol: CHO-K1 cells previously transfected with G-alpha 16 were subsequently transfected with the human CRTH2 receptor and the neomycin resistance gene. Following selection in 800 μg/mL G418 (geneticin), individual clones were assayed for their receptor expression based on staining with an anti human CRTH2 IgG, followed by assaying for their response to 13,14-dihydro-15-keto Prostaglandin D2 (DK-PDG2) (ligand) in the Ca^2+Flux assay. Positive clones were then cloned by limiting dilution cloning. The transfected cells were cultured in Ham's F-12 medium supplemented with 10% fetal bovine serum, 2 mM glutamine , 100 U/mL penicillin/100 μg/mL streptomycin, 200 μg/mL hygromycin B, and 800 μg/mL G418 (geneticin). Cells were harvested with trypsin-EDTA (trypsin-ethylenediaminetetraacetic acid) and counted using ViaCount® reagent (from Guava Technologies, Inc. which contains two DNA-binding dyes that enable the reagent user to distinguish between viable and non-viable cells). The cell suspension volume was adjusted to 2.5×10^5 cells /mL with complete growth media. Aliquots of 50 μL were dispensed into BD Falcon™ 384 well black/clear microplates (from BD Biosciences, a division of Becton, Dickinson and Company) and the microplates were placed in a 37° C. CO2 incubator overnight. The following day, the microplates were used in the assay.
Loading Buffer containing dye (from the FLIPR® Calcium 3 Assay Kit from Molecular Devices, a division of MDS Analytical Technologies and MDS Inc.) was prepared by dissolving the contents of one bottle into 200 mL Hank's Balanced Salt Solution containing 20 mM HEPES (4-(2-hydroxyethyl)-1-piperazineethanesulfonic acid) and 2.5 mM probenecid. Growth media was removed from the cell plates and 25 μL of Hank's Balanced Salt Solution (HBSS) containing 20 mM HEPES, 0.05% BSA and 2.5 mM probenecid was added to each well followed by 25 μL of diluted dye using a Multidrop dispenser. The plates were then incubated for 1 hour at 37° C.
During the incubation, test compound plates were prepared by adding 90 μL of HBSS/20 mM HEPES/0.005% BSA buffer to the 2 μL of serial diluted compounds. To prepare serial diluted compounds, 20 mM stocks of compounds were dissolved in 100% DMSO. The compound dilution plate was set up as follows: well #1 received 5 μL of compound plus 10 μL of DMSO. Wells 2-10 received 10 μL of DMSO. 5 μL was mixed and transferred from well #1 into well #2. 1:3 serial dilutions were continued out 10 steps. 2 μL of diluted compound was transferred into duplicate wells of a 384 well “assay plate” and then 90 μL of buffer was added.
After incubation, both the cell and “assay plate” plates were brought to the fluorometric imaging plate reader (FLIPR®) and 20 μL of the diluted compounds were transferred to the cell plates by the FLIPR®. Plates were then incubated for 1 hour at room temperature. After the 1 hour incubation, plates were returned to the FLIPR® and 20 μL of 4.5× concentrated ligand was added to the cell plates. During the assay, fluorescence readings were taken simultaneously from all 384 wells of the cell plate every 1.5 seconds. Five readings were taken to establish a stable baseline, then 20 μL of sample was rapidly (30 μL/sec) and simultaneously added to each well of the cell plate. The fluorescence was continuously monitored before, during and after sample addition for a total elapsed time of 100 seconds. Responses (increase in peak fluorescence) in each well following agonist addition were determined. The initial fluorescence reading from each well, prior to ligand stimulation, was used as a zero baseline value for the data from that well. The responses were expressed as % inhibition of the buffer control. […]

[3] = test system: DK-PGD2-induced IL-13 production in Th2 cells; assay: DK-PGD2-Induced IL-13 Production Assay in Th2 Cells; assay type: cell-based; conditions: human Th2 cells; 500 nM DK-PGD2; 4 hrs at 37° C.; IL-13 by ELISA; read-out: IC50 for inhibition of IL-13 production
Protocol: Inhibition of 13,14-dihydro-15-keto Prostaglandin D2 (DK-PGD2)-induced IL-13 production in T helper type 2 (Th2) cells was applied to evaluate compound cellular potency.
Cultures of Th2 cells were established from blood of healthy human volunteers according to the following procedure. Peripheral blood mononuclear cells (PBMC) were first isolated from 50 mL of fresh blood by Ficoll-Hypaque density gradient centrifugation, followed by CD4^+cell purification using a CD4^+T Cell Isolation Kit II (from Miltenyi Biotec Inc.). The CD4^+T cells were then differentiated to Th2 cells by culturing the cells in X-VIVO 15® medium (from Cambrex BioScience Walkersville Inc.) containing 10% human AB serum (serum of blood type AB from Invitrogen Corporation), 50 U/mL of recombinant human interleukin-2 (rhIL-2) (from PeproTech Inc.) and 100 ng/mL of recombinant human interleukin-4 (rhIL-4) (from PeproTech Inc.) for 7 days. The Th2 cells were isolated using a CD294 (CRTH2) MicroBead Kit (from Miltenyi Biotec Inc.) and amplified in X-VIVO 15® medium containing 10% human AB serum and 50 U/mL of rhIL-2 for 2 to 5 weeks. In general, 70% to 80% of the Th2 cells used in the assay are CRTH2-positive when analyzed by fluorescence-activated cell sorting using the BM16 antibody (as previously described) conjugated to phycoerythrin (PE).
The spontaneous production of IL-13 by Th2 cells was determined in the absence of DK-PGD2 stimulation and the value was subtracted from that in the presence of each compound for percent inhibition and IC50 calculations.
The percent inhibition of interleukin 13 (IL-13) production for a compound at various concentrations was calculated according to the following formula, [1-(IL-13 production in the presence of compound)/(IL-13 production in the presence of 0.15% DMSO)]×100. […]

| Structure (SMILES) | IC50 [1] | IC50 [2] | IC50 [3] | melting point |
| --- | --- | --- | --- | --- |
| NS(=O)(=O)c1ccc(C(=O)c2cc(CC(=O)O)cc3ccc(F)cc23)cc1 [Example 1-2, [6-Fluoro-4-(4-sulfamoyl-benzoyl)-naphthalen-2-yl]-acetic acid] | 40.2 nM | > 3000 nM | – | – |
| NS(=O)(=O)c1ccc(C(=O)c2cc(CC(=O)O)cc3ccccc23)cc1 [Example 1-3, [4-(4-Sulfamoyl-benzoyl)-naphthalen-2-yl]-acetic acid] | 336 nM | > 3000 nM | – | – |
| CS(=O)(=O)c1ccc(C(=O)c2cc(CC(=O)O)cc3cc4c(cc23)OCO4)cc1 [Example 2-7, [8-(4-Methanesulfonyl-benzoyl)-naphtho[2,3-d][1,3]dioxol-6-yl]-acetic acid] | 264 nM | > 3000 nM | – | – |
| COc1ccc2c(C(=O)c3ccc(S(C)(=O)=O)cc3)cc(CC(=O)O)cc2c1 [Example 2-9, [4-(4-Methanesulfonyl-benzoyl)-7-methoxy-naphthalen-2-yl]-acetic acid] | 199 nM | > 3000 nM | – | – |
| CS(=O)(=O)c1cccc(C(=O)c2cc(CC(=O)O)cc3ccccc23)c1 [Example 2-11, [4-(3-Methanesulfonyl-benzoyl)-naphthalen-2-yl]-acetic acid] | 135 nM | > 3000 nM | – | – |
| CS(=O)(=O)c1cccc(C(=O)c2cc(CC(=O)O)cc3cc4c(cc23)OCO4)c1 [Example 2-12, [8-(3-Methanesulfonyl-benzoyl)-naphtho[2,3-d][1,3]dioxol-6-yl]-acetic acid] | 152 nM | > 3000 nM | – | – |
| CS(=O)(=O)c1ccc(C(=O)c2cc(CC(=O)O)cc3ccc(C(F)(F)F)cc23)cc1 [Example 2-29, [4-(4-Methanesulfonyl-benzoyl)-6-trifluoromethyl-naphthalen-2-yl]-acetic acid] | 7.5 nM | – | 3000 nM | – |
| CS(=O)(=O)c1cccc(C(=O)c2cc(CC(=O)O)cc3ccc(Cl)cc23)c1 [Example 2-30, [6-Chloro-4-(3-methanesulfonyl-benzoyl)-naphthalen-2-yl]-acetic acid] | 82.5 nM | > 3000 nM | – | – |
| CC(C(=O)O)c1cc(C(=O)c2ccc(S(C)(=O)=O)cc2)c2cc(F)ccc2c1 (stereo not drawn) [Example 7-1, 2-[6-Fluoro-4-(4-methanesulfonyl-benzoyl)-naphthalen-2-yl]-propionic acid] | 53.3 nM | > 3000 nM | – | – |

Further lines, results first:

| IC50 [1] | IC50 [2] | IC50 [3] | melting point | Structure (SMILES) |
| --- | --- | --- | --- | --- |
| 162 nM | – | > 10000 nM | – | CS(=O)(=O)c1ccc(Cc2cc(CC(=O)O)cc3cc(C(F)(F)F)ccc23)cc1 [Example 8-3, [4-(4-Methanesulfonyl-benzyl)-7-trifluoromethyl-naphthalen-2-yl]-acetic acid] |
| 3 nM | – | – | 200 to 201 °C | Cc1c(CC(=O)O)cc2ccc(F)cc2c1Cc1ccc(S(=O)(=O)C(F)(F)F)cc1 [Example 11-1, [6-Fluoro-3-methyl-4-(4-trifluoromethanesulfonyl-benzyl)-naphthalen-2-yl]-acetic acid] |
| 386 nM | – | 5750 nM | – | Cc1ccc2cc(CC(=O)O)cc(C(O)c3ccc(S(C)(=O)=O)cc3)c2c1 (stereo not drawn) [Example 16-2, {4-[Hydroxy-(4-methanesulfonyl-phenyl)-methyl]-6-methyl-naphthalen-2-yl}-acetic acid] |
